Where two headings read alike, the source gives them in different places.
How the values were obtained:
[1] = Stabilization of Avobenzone under solar simulator illumination (HPLC); assay type: physicochemical
Procedure: Individual solutions of selected sunscreen compounds (see Table 1) with Avobenzone were as follows. Each sunscreen compound was dissolved in 50% ethanol/50% H2O solution containing roughly an equal molar amount of Avobenzone. A similar solution containing Di-2-ethylhexyl-2,6-napthalene dicarboxylic acid (DENDA) and Avobenzone was also prepared. Each solution was then illuminated in the solar simulator as configured above for the photostability tests and aliquots of each solution were removed at 30-minute time intervals. These aliquots were injected into an HPLC and the loss of Avobenzone was followed with illumination time. The high performance liquid chromatograph (HPLC) used for all experiments reported therein incorporated a Spectra-Physics model P-200 pump with an Applied Biosystems model 785A UV-Visible detector with a Rheodyne manual injector incorporating a […] sample loop and a 150×4.6 mm reversed-phase C18 column (Alltech). All analyses were carried out under isocratic elution conditions using […] mixtures for the mobile phase at a flow rate of […] per minute. It was necessary to employ HPLC separation of Avobenzone from each of the sunscreen compounds to quantify Avobenzone due to the absorption spectra overlap with some of these compounds.

[2] = UV-visible absorption spectrum; assay type: physicochemical
Procedure: (§1) Each sunscreen compound is dissolved in 70% ethanol/30% water and the UV visible absorption spectrum measured with a Shimadza UV 2101-double beam spectrophotometer using the solvent as reference. A control solution of Octocrylene is prepared and the UV-visible absorption spectrum measured. Each solution is then illuminated for two hours in the solar simulator. After illumination, the absorption spectrum is again measured for each solution.

[3] = Photostability in Xe-arc solar simulator (loss of UV absorption); conditions: 70% ethanol/30% water, about 250 J/cm^2
Procedure: Compounds are illuminated in a solar simulator incorporating a 1 kw Xe arc lamp, optical bench and illumination chamber. The entire output of the illumination system is focused onto the face of a 1 centimeter Cuvette (an area of 4 cm^2) that contains the dilute samples of a compound of Formula I. The samples experience roughly 250 J/cm^2 of radiation between 290 and 400 nm over a period of two hours. The solutions contain between 0.0056 mg/ml and 2.5 mg/ml.
A solar simulator used for illumination of the samples in the experiments is constructed incorporating a 1 kw Xe arc lamp, optical bench and sample illumination chamber. The lamp output is filtered through a water filter with a course window to remove most of the infrared radiation and optical filters to remove wavelengths below 290 mn. The output of the illumination system is focused onto the face of a 1 cm quartz Cuvette that is thermally equilibrated with a constant temperature water bath at 25° C. A magnetic stir is mounted under the Cuvette so that the samples could be stirred while being illuminated. An electric shutter is controlled by a dark room timer to provide precise control of illumination times. The solar simulator is constructed to provide illumination that closely matches terrestrial sunlight. The solar simulator delivers roughly 250 J/cm^2 over a 2-hour period of illumination in a 290-490 nm range. This irradiance is determined using two nitrobenzaldehyde chemical actinometry. The irradiance is much higher than other solar simulator systems which typically illuminate a large area in order to illuminate many samples simultaneously rather than being focused down to a very small area.
as §1

[4] = DPPH test method (reducing activity of DPPH radical); assay type: biochemical; conditions: absorbance at 517 nm after 20 minutes
Procedure: A DPPH working solution is then prepared by diluting 100 mL of this concentrate to a final volume of 250 mL (100 μM/mL). A blank 13×100 mm borosilicate glass screw top tube of ethanol (USP) is used to zero the spectrometer (Milton Roy, Spectronic 20+) at 517 nm and a control tube of DPPH working solution is measured under identical conditions, and taken as 0% activity. […] After 20 minutes, the absorbance of each sample is read at 517 nm.
The percent reducing activity (%RA) is calculated using the following equation: [formula]
Where A(0) is the absorbance value of the DPPH working solution at 517nm zeroed against an ethanol blank and A(20) is the absorbance at 517 nm, 20 minutes after combining the antioxidant with the DPPH working solution.
The concentration of antioxidant (mg/ml) in the final assay mixture is calculated based on the dilution of respective aliquots of each compound in the final assay volume and %RA tabulated and plotted as percent activity at each concentration in the dilution series.
The antioxidant activity of selected compounds of this invention was determined from their reducing activity of a DPPH radical.

[5] = Product/Avobenzone (1:1, w/w), % Loss of Avobenzone by HPLC, solar simulator, 2 hrs

| Stabilization of Avobenzone % Loss of Avobenzone in 2 hrs [1, 5] | λmax, nm (Ethanol) [2] [nm] | Photostability % Loss in 2 hrs [3] [%] | Stabilization of Avobenzone % Loss of Avobenzone in 2 hrs [1] [%] | SMILES | % Reducing Activity of DPPH Radical at 30 μg/ml [4] [%] |
| --- | --- | --- | --- | --- | --- |
| 1.5% | 303 | 2.8 | – | CCCCC(CC)COC(=O)C(C#N)=C(c1ccccc1)c1ccccc1 (stereo not shown) [Octocrylene, reference compound] | – |
| – | 332 | – | 4.5 | CCCCC(CC)COC(=O)C(=Cc1ccc(O)c(OC)c1)C(=O)OCC(CC)CCCC (stereo not shown) [Di-(2-Ethylhexyl)-3-methoxy-4-hydroxy benzylidene malonate] | 7.4 |
| insignificant | 341 | 3.2 | – | COc1cc(C=C(C(C)=O)C(=O)OCCC(C)C)cc(C(C)C)c1O [Isoamyl-alpha-acetyl-3-methoxy-4-hydroxy-5-isopropyl-cinnamate] | 28 |
| – | 358 | 37 | – | COc1ccc(C(=O)CC(=O)c2ccc(C(C)(C)C)cc2)cc1 [Avobenzone, reference compound] | – |
| – | 334 | – | 2.5 | CCCCC(CC)COC(=O)C(=Cc1cc(OC)c(O)c(C(C)C)c1)C(=O)OCC(CC)CCCC (stereo not shown) [di-(2-ethyhexyl)-3-methoxy-4-hydroxy-5-isopropyl-benzylidene malonate] | 11.2 |
| insignificant | 339 | 4.1 | – | COc1cc(C=C(C(C)=O)C(=O)OCCC(C)C)ccc1O [Iso-amyl-alpha-acetyl-3-methoxy-4-hydroxy-cinnamate] | 22 |
| – | 333 | – | 3.8 | COc1cc(C=C(C(=O)OCCC(C)C)C(=O)OCCC(C)C)ccc1O [Di-isoamyl-3-methoxy-4-hydroxy benzylidene malonate] | 9.5 |
